Assay results as given in the supplement of paper PMC10307832.

Columns and labels:
Test in all cases: relative viability (nuclei count vs DMSO), 5 days (fraction); higher = more cells survive
[1] = system: LOU-NH91
Method in brief: (§1)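 Lung cancer cell lines were pin-tool dosed in 1536-well plates on the day after seeding, with either a lone drug or a fixed anchor-drug dose plus five library-drug doses (not always all listed) in √10 steps. Nuclei were counted on 4× images after 5 days. Relative viability is the ratio of treated-well to vehicle-well nuclei counts, with each value a median of duplicate plates.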

[2] = system: HOP-62
Method in brief: as §1

[3] = system: BEN
Method in brief: as §1

[4] = system: NCI-H647
Method in brief: as §1

[5] = system: NCI-H1437
Method in brief: as §1

[6] = system: NCI-H441
Method in brief: as §1

[7] = system: NCI-H2170
Method in brief: as §1

[8] = system: PC-14
Method in brief: as §1

[9] = system: NCI-H1666
Method in brief: as §1

[10] = system: NCI-H1355
Method in brief: as §1

[11] = system: ChaGo-K-1
Method in brief: as §1

[12] = system: NCI-H2126
Method in brief: as §1

[13] = system: EKVX
Method in brief: as §1

[14] = system: LK-2
Method in brief: as §1

[15] = system: LXF-289
Method in brief: as §1

[16] = system: NCI-H727
Method in brief: as §1

[17] = system: RERF-LC-KJ
Method in brief: as §1

[18] = system: SK-MES-1
Method in brief: as §1

[19] = system: NCI-H1944
Method in brief: as §1

[20] = system: HCC-827
Method in brief: as §1

Cc1cn(-c2cc(NC(=O)c3ccc(C)c(Nc4nccc(-c5cccnc5)n4)c3)cc(C(F)(F)F)c2)cn1 [Nilotinib] + CC1(C)CCC(c2ccc(Cl)cc2)=C(CN2CCN(c3ccc(C(=O)NS(=O)(=O)c4ccc(N[C@H](CCN5CCOCC5)CSc5ccccc5)c(S(=O)(=O)C(F)(F)F)c4)cc3)CC2)C1 [Navitoclax] (partner 0.5 µM)
relative viability ([1]; first compound 0.001 µM): 0.644
relative viability ([1]; first compound 0.003162 µM): 0.685
relative viability ([1]; first compound 0.01 µM): 0.846
relative viability ([1]; first compound 0.03162 µM): 0.608
relative viability ([1]; first compound 0.1 µM): 0.658
relative viability ([2]; first compound 0.001 µM): 0.832
relative viability ([2]; first compound 0.003162 µM): 1.05
relative viability ([2]; first compound 0.01 µM): 1.24
relative viability ([2]; first compound 0.03162 µM): 0.94
relative viability ([2]; first compound 0.1 µM): 0.454
relative viability ([3]; first compound 0.001 µM): 0.0648
relative viability ([3]; first compound 0.003162 µM): 0.0542
relative viability ([3]; first compound 0.01 µM): 0.0592
relative viability ([3]; first compound 0.1 µM): 0.0654
relative viability ([4]; first compound 0.001 µM): 0.952
relative viability ([4]; first compound 0.003162 µM): 1.42
relative viability ([4]; first compound 0.01 µM): 1.26
relative viability ([4]; first compound 0.03162 µM): 0.997
relative viability ([4]; first compound 0.1 µM): 0.974
relative viability ([5]; first compound 0.001 µM): 1.02
relative viability ([5]; first compound 0.003162 µM): 1.34
relative viability ([5]; first compound 0.01 µM): 1.15
relative viability ([5]; first compound 0.03162 µM): 0.766
relative viability ([5]; first compound 0.1 µM): 0.925
relative viability ([6]; first compound 0.001 µM): 0.499
relative viability ([6]; first compound 0.003162 µM): 0.667
relative viability ([6]; first compound 0.01 µM): 0.568
relative viability ([6]; first compound 0.1 µM): 0.493
relative viability ([7]; first compound 0.001 µM): 0.483
relative viability ([7]; first compound 0.003162 µM): 0.64
relative viability ([7]; first compound 0.01 µM): 0.716
relative viability ([7]; first compound 0.03162 µM): 0.56
relative viability ([7]; first compound 0.1 µM): 0.771
relative viability ([8]; first compound 0.003162 µM): 1.09
relative viability ([8]; first compound 0.01 µM): 1.19
relative viability ([8]; first compound 0.03162 µM): 0.882
relative viability ([8]; first compound 0.1 µM): 1.07
relative viability ([9]; first compound 0.001 µM): 0.994
relative viability ([9]; first compound 0.003162 µM): 1.24
relative viability ([9]; first compound 0.01 µM): 0.98
relative viability ([9]; first compound 0.03162 µM): 0.895
relative viability ([9]; first compound 0.1 µM): 0.759
relative viability ([10]; first compound 0.001 µM): 1
relative viability ([10]; first compound 0.003162 µM): 1.14
relative viability ([10]; first compound 0.01 µM): 1.12
relative viability ([10]; first compound 0.03162 µM): 0.928
relative viability ([10]; first compound 0.1 µM): 0.893
relative viability ([11]; first compound 0.001 µM): 1.47
relative viability ([11]; first compound 0.003162 µM): 0.924
relative viability ([11]; first compound 0.01 µM): 1.06
relative viability ([11]; first compound 0.03162 µM): 0.754
relative viability ([11]; first compound 0.1 µM): 0.787
relative viability ([12]; first compound 0.001 µM): 0.861
relative viability ([12]; first compound 0.003162 µM): 0.891
relative viability ([12]; first compound 0.01 µM): 0.89
relative viability ([12]; first compound 0.03162 µM): 0.846
relative viability ([12]; first compound 0.1 µM): 0.82
relative viability ([13]; first compound 0.001 µM): 0.795
relative viability ([13]; first compound 0.003162 µM): 1.29
relative viability ([13]; first compound 0.01 µM): 1.42
relative viability ([13]; first compound 0.03162 µM): 0.764
relative viability ([13]; first compound 0.1 µM): 1.21
relative viability ([14]; first compound 0.001 µM): 0.759
relative viability ([14]; first compound 0.003162 µM): 0.939
relative viability ([14]; first compound 0.01 µM): 1
relative viability ([14]; first compound 0.03162 µM): 0.743
relative viability ([14]; first compound 0.1 µM): 0.945
relative viability ([15]; first compound 0.001 µM): 0.904
relative viability ([15]; first compound 0.003162 µM): 1.09
relative viability ([15]; first compound 0.01 µM): 1.05
relative viability ([15]; first compound 0.03162 µM): 0.855
relative viability ([15]; first compound 0.1 µM): 0.878
relative viability ([16]; first compound 0.001 µM): 0.478
relative viability ([16]; first compound 0.01 µM): 0.386
relative viability ([16]; first compound 0.03162 µM): 0.385
relative viability ([16]; first compound 0.1 µM): 0.253
relative viability ([17]; first compound 0.001 µM): 1.07
relative viability ([17]; first compound 0.003162 µM): 0.949
relative viability ([17]; first compound 0.01 µM): 1.24
relative viability ([17]; first compound 0.03162 µM): 1.15
relative viability ([17]; first compound 0.1 µM): 1.08
relative viability ([18]; first compound 0.001 µM): 1.17
relative viability ([18]; first compound 0.003162 µM): 1.5
relative viability ([18]; first compound 0.01 µM): 1.61
relative viability ([18]; first compound 0.03162 µM): 1.1
relative viability ([18]; first compound 0.1 µM): 1.29
relative viability ([19]; first compound 0.001 µM): 1.03
relative viability ([19]; first compound 0.003162 µM): 1.13
relative viability ([19]; first compound 0.01 µM): 1.22
relative viability ([19]; first compound 0.03162 µM): 1.12
relative viability ([19]; first compound 0.1 µM): 0.987
relative viability ([20]; first compound 0.001 µM): 1.02
relative viability ([20]; first compound 0.003162 µM): 1.08
relative viability ([20]; first compound 0.01 µM): 1.1
relative viability ([20]; first compound 0.1 µM): 1
